From US20020165208A1, “Compositions and methods relating to hypertension” (priority 2000, published 2002)
Read-outs that look alike come from different tables or passages of the source.

Experiments:
[1] = biological target: T1, recombinant Cyp 4a14 (Mus musculus, UniProt O35728); assay: Substrate oxidation by purified recombinant Cyp 4a14; type: biochemical
T1 construct: A KpnI-XhoI cDNA fragment (1.9 kb) was subcloned into the pBlueBac IV vector; made in house; host or cells: Sf9 insect cells / baculovirus (pBlueBac IV, Invitrogen)
T1 sequence (O35728 5-507): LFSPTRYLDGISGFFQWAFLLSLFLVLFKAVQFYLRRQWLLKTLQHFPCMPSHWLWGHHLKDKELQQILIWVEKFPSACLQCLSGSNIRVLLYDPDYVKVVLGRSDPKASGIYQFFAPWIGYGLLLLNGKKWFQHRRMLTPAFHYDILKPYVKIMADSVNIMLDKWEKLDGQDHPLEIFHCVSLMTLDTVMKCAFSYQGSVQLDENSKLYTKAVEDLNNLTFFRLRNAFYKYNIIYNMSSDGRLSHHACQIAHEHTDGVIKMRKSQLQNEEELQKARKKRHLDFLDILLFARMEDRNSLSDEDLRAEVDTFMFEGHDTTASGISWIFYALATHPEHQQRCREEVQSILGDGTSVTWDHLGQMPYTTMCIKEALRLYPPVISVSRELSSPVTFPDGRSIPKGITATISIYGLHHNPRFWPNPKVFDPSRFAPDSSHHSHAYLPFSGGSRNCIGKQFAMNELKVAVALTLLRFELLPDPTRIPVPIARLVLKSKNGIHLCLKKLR
Method: (§1) Kidney microsomes were isolated from treated and nontreated Cyp 4a14 (+/+) and (−/−) mice (21), suspended (1-2 mg of protein/ml) in 0.05 M Tris·Cl (pH 7.4) containing 0.15 M KCl and 10 mM MgCl2, and incubated with [1^14C]AA or lauric acid (100 μM, 5 μCi/μmol each) and NADPH (1 mM) at 35° C. Reaction products were resolved and quantified as described (21). For antibody inhibition, microsomes were incubated (30 min at 22° C.) with rabbit anti-CYP 4A2 or nonimmune serum (0.1-1 mg of protein/ml) before enzymatic analysis. Recombinant Cyp 4a14 (0.1-1 μM) was incubated with [1-^14C]-labeled AA or lauric acid in the presence of purified P450 reductase, cytochrome b5, dilauroylphosphatidylcholine, and NADPH (1 mM), as described (15, 21). Urine collections (8-12 h) were incubated at 35° C. for 2-3 h with -glucoronidase (22) (Sigma) (1 mg/ml) and, after purification, the levels of 19- and 20-HETE were quantified by mass spectroscopy (22).

[2] = tested on: renal vasculature; conditions: synthetic 20-HETE; cited from earlier work
[3] = tested on: Cyp 4a14 (+/+) and (−/−) mice; assay: Arterial blood pressure of conscious mice by right carotid artery catheter; type: in vivo, mouse; conditions: for Effect on hypertensive phenotype (blood pressure): castrated Cyp 4a14 (−/−) mice, androgen-releasing pellets
Method: The arterial blood pressures of conscious 12- to 14-week-old mice were measured by means of a right carotid artery catheter (300-500 μm OD). After surgery (24-48 h), animals were allowed to become familiar with the environment and, after stabilization, their arterial blood pressures were monitored continuously for at least 30 min by using a pressure transducer. […] For measurements of afferent arteriolar diameter, male kidneys were perfused in vitro with a physiological salt solution supplemented with a mixture of L-amino acids (23), and the juxtamedullary vasculature was monitored continuously by videomicroscopy, as described (23). The relationship between afferent arteriolar diameter and perfusion pressure was determined at 80, 120, and 160 mm Hg. Perfusion pressure changes were followed by a 3-min equilibration before steady-state diameter measurements (23).

[4] = tested on: Arachidonic acid ω-hydroxylase of mouse kidney microsomes; conditions: DHT pellets
Method: as §1

[5] = tested on: Cyp 4a12 transcripts; conditions: DHT-treated castrated Cyp 4a14 (−/−) mice
Method: Top frame: Samples of total RNA (5-10 μg each) from the kidneys of control (A), castrated (B), castrated and DHT-treated (C) males or from control (D) and DHT-treated (E) females were fractionated by agar electrophoresis, transferred to nitrocellulose membranes, and hybridized to ^32P-labeled DNA probes (400-500 bp) coding for segments of the 3′-untranslated end of the Cyp 4a10, 4a12, and 4a14 cDNAs. After high-stringency washes, the membranes were exposed to x-ray films for 4, 2, or 21 h for male Cyp 4a10, 4a12, and 4a14, respectively, and 6, 21, or 12 h for female Cyp 4a10, 4a12, and 4a14, respectively. RNA loadings were normalized by using a -actin cDNA probe. […] Bottom frame: Dehydrated paraffin sections from the kidneys of control (A and A′), castrated (B and B′) and DHT-treated castrated male mice (C and C′) were hybridized to [^35S]-labeled riboprobes encoding 3′-end untranslated segments of the Cyp 4a12 cDNA. After washing, RNase A treatment, and dehydration, the sections were dipped in emulsion (IlfordK5; Knutsford, Cheshire, U.K.), exposed for 4-5 days at 4° C., and developed by using D-19 (Kodak). Slides were counterstained with hematoxylin. Photomicrographs were obtained by using either dark-field (3×) (A-C) or bright-field (100×) (A′, B′, and C′) optics.

[6] = Plasma androgen levels (TST and DHT) by RIA in castrated, pellet-implanted mice; conditions: for concentration at 10 days: male, mouse, in vivo, 5 mg DHT/day, Plasma DHT level, DHT-releasing pellets, ten days after implantation
[7] = biological target: T2, rat CYP 4A1 (Rattus norvegicus, UniProt P08516); assay: TST oxidation by rat CYP 4A1
T2 sequence (P08516 1-509): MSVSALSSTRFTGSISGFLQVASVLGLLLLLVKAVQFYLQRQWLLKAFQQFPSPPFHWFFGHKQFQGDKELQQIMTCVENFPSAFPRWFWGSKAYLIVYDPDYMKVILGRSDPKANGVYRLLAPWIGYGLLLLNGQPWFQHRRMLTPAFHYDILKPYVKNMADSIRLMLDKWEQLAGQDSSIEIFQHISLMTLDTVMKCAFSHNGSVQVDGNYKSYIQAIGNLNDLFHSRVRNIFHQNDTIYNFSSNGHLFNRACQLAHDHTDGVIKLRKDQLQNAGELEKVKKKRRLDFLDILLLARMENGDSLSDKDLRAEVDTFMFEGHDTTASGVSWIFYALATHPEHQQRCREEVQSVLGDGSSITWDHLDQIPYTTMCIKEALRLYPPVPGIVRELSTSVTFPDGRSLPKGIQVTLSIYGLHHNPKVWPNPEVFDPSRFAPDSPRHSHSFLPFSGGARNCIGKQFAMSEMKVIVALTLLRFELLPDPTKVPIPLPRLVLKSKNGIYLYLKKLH

[8] = biological target: T3, rat CYP 4A2 (Rattus norvegicus, UniProt P20816); assay: TST oxidation by rat CYP 4A2
T3 sequence (P20816 5-504): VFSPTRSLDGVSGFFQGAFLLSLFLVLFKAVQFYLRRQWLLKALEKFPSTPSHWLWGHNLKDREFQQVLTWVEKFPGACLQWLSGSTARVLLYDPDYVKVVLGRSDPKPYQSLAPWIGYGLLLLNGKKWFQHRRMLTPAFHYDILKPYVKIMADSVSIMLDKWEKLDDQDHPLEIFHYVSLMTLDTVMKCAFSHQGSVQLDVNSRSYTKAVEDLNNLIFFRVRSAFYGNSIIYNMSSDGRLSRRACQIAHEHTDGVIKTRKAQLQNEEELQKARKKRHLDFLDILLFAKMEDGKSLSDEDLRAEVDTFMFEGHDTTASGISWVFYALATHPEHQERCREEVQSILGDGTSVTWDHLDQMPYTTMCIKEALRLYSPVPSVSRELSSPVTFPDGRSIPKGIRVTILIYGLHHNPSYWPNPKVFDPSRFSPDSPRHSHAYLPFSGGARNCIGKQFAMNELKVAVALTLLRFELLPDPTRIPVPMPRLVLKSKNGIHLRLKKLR

SMILES: CCCCCCCCCCCC(=O)O [lauric acid]
- Lauric acid oxidation rate ([1]; purified recombinant Cyp 4a14): 4.0±0.8 nmol product/min/nmol of P450

SMILES: CCCCC/C=C\C/C=C\C/C=C\C/C=C\CCCC(=O)O [AA, arachidonic acid]
- AA metabolism ([1]; purified recombinant Cyp 4a14, even with cytochrome b5, excess P450 reductase, GSH, EDTA, and/or sodium cholate): did not metabolize AA

SMILES: O=C(O)CCC/C=C\C/C=C\C/C=C\C/C=C\CCCCCO [20-HETE, 20-hydroxyarachidonic acid]
- Renal vasoconstrictor activity [2]: powerful renal vasoconstrictor

SMILES: C[C@]12CCC(=O)C[C@@H]1CC[C@@H]1[C@@H]2CC[C@]2(C)[C@@H](O)CC[C@@H]12 [DHT, 5-dihydrotestosterone]
- MABP ([3]; DHT-treated castrated Cyp 4a14 (+/+) mice, n=10): 137±4 mm of Hg
- MABP ([3]; DHT-treated control (noncastrated) Cyp 4a14 (+/+) mice, n=10): 140±5 mm of Hg
- MABP ([3]; DHT-treated female Cyp 4a14 (+/+) mice): 132±4 mm of Hg
- MABP ([3]; DHT-treated female Cyp 4a14 (−/−) mice): 133±4 mm of Hg
- Effect on hypertensive phenotype (blood pressure) [3]: restored the hypertensive phenotype
- (20-HETE) % of total ([4]; castrated male (+/+) mice): 82 % of total
- ω-Hydroxylase rate ([4]; castrated male (+/+) mice): 228 ± 35 picomoles of product formed per minute per milligram of microsomal protein
- (20-HETE) % of total ([4]; castrated male (−/−) mice): 82 % of total
- ω-Hydroxylase rate ([4]; castrated male (−/−) mice): 225 ± 23 picomoles of product formed per minute per milligram of microsomal protein
- (20-HETE) % of total ([4]; female (+/+) mice): 76 % of total
- ω-Hydroxylase rate ([4]; female (+/+) mice): 140 ± 3 picomoles of product formed per minute per milligram of microsomal protein
- (20-HETE) % of total ([4]; female (−/−) mice): 77 % of total
- ω-Hydroxylase rate ([4]; female (−/−) mice): 164 ± 3 picomoles of product formed per minute per milligram of microsomal protein
- Cyp 4a12 transcript expression in kidney [5]: abundant and selective expression of 4a 12 transcripts in the renal cortex
- concentration at 10 days ([6]; castrated male Cyp 4a14 (+/+) mice): 2.64 ± 0.3 ng/mL
- concentration at 10 days ([6]; castrated male Cyp 4a14 (−/−) mice): 2.01 ± 0.1 ng/mL

SMILES: C[C@]12CC[C@H]3[C@@H](CCC4=CC(=O)CC[C@@]43C)[C@@H]1CC[C@@H]2O [TST, testosterone]
- Effect on hypertensive phenotype (blood pressure) [3]: restored the hypertensive phenotype
- TST oxidation [7]: neither recombinant Cyp 4a14 nor rat CYPs 4A1 or 4A2 catalyzed TST oxidation
- TST oxidation [8]: neither recombinant Cyp 4a14 nor rat CYPs 4A1 or 4A2 catalyzed TST oxidation
- Plasma TST level ([6]; castrated Cyp 4a14 (−/−) mice given TST, n=7): 1.8±0.04 ng TST/ml
